Test results reported in patent publication US20140357512A1, “HISTONE DEACETYLASE (HDAC) BIOMARKERS IN MULTIPLE MYELOMA” (priority 2013, published 2014).

Tested on: human myeloma cell line MM.1S
Assay: SILAC acetylated-lysine peptide profiling, HDAC inhibitor vs DMSO (light/heavy ratio)
Assay type: cell-based
Text: An embodiment of the invention comprises utilizing the SILAC method in order to quantitate changes in protein expression between two or more populations of cells. The SILAC method is a technique based on mass spectrometry that detects differences in protein abundance among samples using non-radioactive isotopic labeling. The SILAC method is known in the art, and described in detail in Ong et al., “Stable Isotope Labeling by Amino Acids in Cell Culture, SILAC, as a Simple and Accurate Approach to Expression Proteomics”, Molecular & Cellular Proteomics, vol. 1, pp. 376-386 (2002), which is incorporated herein by reference in its entirety.
Briefly, the SILAC method involves growing two populations of cells in cell culture. The first population of cells is grown in growth media containing normal amino acids (“normal media”). The second population of cells is grown in media lacking a standard essential amino acid (such as lysine), but is then supplemented with a non-radioactive, isotopically labeled form of that essential amino acid (such as lysine labeled with ^13C atoms, rather than normal ^12C atoms), which is called “heavy media”. When the two populations of cells are each growing in the medium, they incorporate the amino acids into all of their proteins. The growth of cells maintained in the heavy media is no different from that in normal media. All peptides containing the heavy amino acids are heavier than their normal counterparts. The cells from each of the two populations of cells are lysed. The lysates from each of the two cell populations are then combined. The combined cell lysates are then analyzed by mass spectrometry. Pairs of chemically identical peptides of different stable isotope composition can be differentiated in a mass spectrometer due to their difference in mass. The ratio of peak intensities in the mass spectrum for such peptide pairs reflects the abundance ratio for the two proteins.
This example describes SILAC studies that were performed to compare the effects of three different HDAC inhibitors (Compound A, Compound B, and tubastatin A) to a control on a human multiple myeloma cell line. The HDAC inhibitors were also compared amongst themselves to determine differences in their effects.
A human myeloma cell line MM.1S was grown using either ^12C (light) or ^13C (heavy) lysine containing culture medium. The “heavy” cells were treated with DMSO as the control, and the “light” cells were treated with a single HDAC inhibitor at 37° C. for 6 hours. The heavy and light cells were lysed, and the lysates were mixed in 1:1 ratio and digested with the protease trypsin. The acetylated lysine containing peptides (due to the action of the HDAC inhibitor) in the digested peptide pool were captured by a non-specific anti-acetylated lysine antibody cocktail (the antibodies identify both light and heavy acetylated peptides), and subjected to mass spectrometry analysis in order to identify thousands of individual peptides.
Thousands of peptides were identified in pairs (^12C and ^13C) due to their known mass differences. The amino acid sequence and quantitative ratio (Light/Heavy) of a given peptide in two differentially treated cell lysates were then determined and annotated with their possible protein (gene) sources.
As stated above, three HDAC inhibitors (Compound A, Compound B, and Tubastatin A) were used. Thus, the SILAC method was performed three times, with a different HDAC inhibitor compared to a control each time. Accordingly, there are three pairs of quantitative data in the table below, i.e., Compound A:DMSO, Compound B:DMSO, and Tubastatin A:DMSO. A cut-off of 1.30 fold of change (increase or decrease) was then used to determine “changed” or “+” in the table, and any peptides with a fold of change less than 1.3 fold were determined to be “unchanged” or “0” in the table. Those peptides that were not identified were marked as “NA” in the table. […]

Q: `CN1CCc2c(c3ccccc3n2Cc2ccc(C(=O)NO)cc2)C1` [Tub A] was tested. Which “light to heavy ratio (L/H ratio) of acetylated peptide LLLFK(ac)TFSR (SEQ ID NO: 514)” value (Heterogeneous nuclear ribonucleoprotein U-like protein 2 [553], gene HNRNPUL2, inhibitor:DMSO) did it give?
A: 0.00 log 2

Q: And the “light to heavy ratio (L/H ratio), log 2 scale, acetylated peptide GSK(ac)K(ac)AINK (SEQ ID NO: 792)” value (Histone H2B type 1-M [16:17], gene HIST1H2BM, drug:DMSO)?
A: 0.00

Q: And the “light to heavy ratio (L/H ratio), log 2 scale, acetylated peptide K(ac)AINK(ac)AQK (SEQ ID NO: 793)” value (Histone H2B type 1-M [17:21], gene HIST1H2BM, drug:DMSO)?
A: 0.00

Q: And the “light to heavy ratio (L/H ratio) of acetylated peptide PEPAK(ac)SAPAPK(ac)K (SEQ ID NO: 309)” value (Histone H2B type 2-E [6:12], HIST2H2BE, drug:DMSO)?
A: 0.58 log 2

Q: What about the “light to heavy ratio (L/H ratio) of acetylated peptide AVTK(ac)AQK(ac)K (SEQ ID NO: 560)” value (Histone H2B type 2-E [21:24], gene HIST2H2BE, inhibitor:DMSO) of the same compound?
A: 0.00 log 2

Q: What about the “light to heavy ratio (L/H ratio) of acetylated peptide K(ac)STGGK(ac)APR (SEQ ID NO: 310)” value (Histone H3.2 [10:15], HIST2H3D, HIST2H3A, HIST2H3C, drug:DMSO) of the same compound?
A: 0.46 log 2

Q: And the “light to heavy ratio (L/H ratio), log 2 scale, acetylated peptide K(ac)QLATK(ac)AAR (SEQ ID NO: 796)” value (Histone H3.2 [19:24], gene HIST2H3D, HIST2H3A, HIST2H3C, drug:DMSO)?
A: 0.00

Q: What about the “light to heavy ratio (L/H ratio) of acetylated peptide GK(ac)GGK(ac)GLGK (SEQ ID NO: 311)” value (Histone H4 [6:9], HIST2H4B, HIST1H4C and other H4 genes, drug:DMSO) of the same compound?
A: 0.49 log 2

Q: What about the “light to heavy ratio (L/H ratio) of acetylated peptide GLGK(ac)GGAK(ac)R (SEQ ID NO: 312)” value (Histone H4 [13:17], HIST2H4B, HIST1H4C and other H4 genes, drug:DMSO) of the same compound?
A: 0.49 log 2

Q: What about the “light to heavy ratio (L/H ratio) of acetylated peptide GLGK(ac)GGAKR (SEQ ID NO: 313)” value (Histone H4 [13], HIST2H4B, HIST1H4C and other H4 genes, drug:DMSO) of the same compound?
A: −0.62 log 2

Q: And the “light to heavy ratio (L/H ratio) of acetylated peptide DGLQNEK(ac)NIVSTPVK (SEQ ID NO: 268)” value (Hydroxymethylglutaryl-CoA lyase mitochondrial [48], HMGCL, drug:DMSO)?
A: 0.40 log 2

Q: And the “light to heavy ratio (L/H ratio) of acetylated peptide K(ac)NINCSIEESFQR (SEQ ID NO: 594)” value (Hydroxymethylglutaryl-CoA lyase mitochondrial [137], gene HMGCL, inhibitor:DMSO)?
A: 0.00 log 2

Q: What about the “light to heavy ratio (L/H ratio) of acetylated peptide, log 2 scale” value (IFVGGLSPDTPEEK(ac)IR (SEQ ID NO: 166), Isoform 1 of Heterogeneous nuclear ribonucleoprotein D0 [197], HNRNPD) of the same compound?
A: −0.78

Q: What about the “light to heavy ratio (L/H ratio) of acetylated peptide, log 2 scale” value (IGFGSFVDK(ac)TVLPFVSTVPSK (SEQ ID NO: 180), Isoform Long of Integrin beta-7 [199], ITGB7) of the same compound?
A: −0.40

Q: And the “light to heavy ratio (L/H ratio) of acetylated peptide, log 2 scale” value (IGIEIIK(ac)R (SEQ ID NO: 174), 60 kDa heat shock protein mitochondrial [469], HSPD1)?
A: −0.42

Q: And the “L/H ratio of acetylated peptide YAASSYLSLTPEQWK(ac)SHR (SEQ ID NO: 56)” value (IGLV2-14, IGLC2 [208], log 2 scale, drug vs DMSO)?
A: −0.63

Q: And the “light to heavy ratio (L/H ratio) of acetylated peptide, log 2 scale” value (IMK(ac)DLDQCR (SEQ ID NO: 217), Protein S100-A10 [57], S100A10)?
A: 0.72

Q: And the “light to heavy ratio (L/H ratio) of acetylated peptide, log 2 scale” value (IQDK(ac)EGIPPDQQR (SEQ ID NO: 212), Ubiquitin-40S ribosomal protein S27a [33], RPS27A)?
A: −0.50

Q: What about the “light to heavy ratio (L/H ratio) of acetylated peptide, log 2 scale” value (ISK(ac)EVLAGR (SEQ ID NO: 167), Isoform Short of Heterogeneous nuclear ribonucleoprotein U [417], HNRNPU) of the same compound?
A: −0.75

Q: What about the “L/H ratio of acetylated peptide” value (IVQK(ac)HPHTGDTKEEK (SEQ ID NO: 489), Death-associated protein 1 [29], DAP) of the same compound?
A: 0.00 log 2

Q: And the “light to heavy ratio (L/H ratio) of acetylated peptide, log 2 scale” value (IYFTDSSSK(ac)WQR (SEQ ID NO: 138), Isoform 1 of Adipocyte plasma membrane-associated protein [220], C20orf3)?
A: −0.59

Q: What about the “light to heavy ratio (L/H ratio), log 2 scale, acetylated peptide ADLIK(ac)QYGR (SEQ ID NO: 798)” value (Inactive hydroxysteroid dehydrogenase-like protein 1 [64], gene HSDL1, drug:DMSO) of the same compound?
A: 0.00

Q: What about the “light to heavy ratio (L/H ratio) of acetylated peptide HAHGDQYK(ac)ATDFVADR (SEQ ID NO: 574)” value (Isocitrate dehydrogenase [NADP] mitochondrial [180], gene IDH2, inhibitor:DMSO) of the same compound?
A: 0.00 log 2

Q: What about the “light to heavy ratio (L/H ratio) of acetylated peptide AGTFK(ac)MVFTPK (SEQ ID NO: 606)” value (Isocitrate dehydrogenase [NADP] mitochondrial [193], gene IDH2, inhibitor:DMSO) of the same compound?
A: 0.00 log 2

Q: What about the “light to heavy ratio (L/H ratio) of acetylated peptide VVDSMDALDK(ac)VVQER (SEQ ID NO: 318)” value (Isoform 1 of 39S ribosomal protein L47 mitochondrial [144], MRPL47, drug:DMSO) of the same compound?
A: 0.45 log 2

Q: What about the “light to heavy ratio (L/H ratio) of acetylated peptide ATVPK(ac)TEIR (SEQ ID NO: 272)” value (Isoform 1 of 40S ribosomal protein S24 [37], RPS24, drug:DMSO) of the same compound?
A: −0.44 log 2

Q: And the “light to heavy ratio (L/H ratio) of acetylated peptide AEEILEK(ac)GLK (SEQ ID NO: 547)” value (Isoform 1 of 60S ribosomal protein L11 [85], gene RPL11, inhibitor:DMSO)?
A: 0.00 log 2

Q: And the “light to heavy ratio (L/H ratio) of acetylated peptide ISK(ac)EEAMR (SEQ ID NO: 299)” value (Isoform 1 of 60S ribosomal protein L11 [159], RPL11, drug:DMSO)?
A: −0.48 log 2

Q: What about the “light to heavy ratio (L/H ratio) of acetylated peptide AGLVDDFEK(ac)K (SEQ ID NO: 301)” value (Isoform 1 of ATP synthase subunit d mitochondrial [72], ATP5H, drug:DMSO) of the same compound?
A: 0.66 log 2

Q: What about the “light to heavy ratio (L/H ratio) of acetylated peptide VPVPEDK(ac)YTAQVDAEEKEDVK (SEQ ID NO: 290)” value (Isoform 1 of ATP synthase subunit d mitochondrial [85], ATP5H, drug:DMSO) of the same compound?
A: 0.50 log 2

Q: What about the “light to heavy ratio (L/H ratio) of acetylated peptide TLK(ac)ALEYVFK (SEQ ID NO: 516)” value (Isoform 1 of Dedicator of cytokinesis protein 2 [738], gene DOCK2, inhibitor:DMSO) of the same compound?
A: 0.00 log 2

Q: What about the “light to heavy ratio (L/H ratio), log 2 scale, acetylated peptide ILSK(ac)LSEETK (SEQ ID NO: 759)” value (Isoform 1 of E3 UFM1-protein ligase 1 [614], gene UFL1, drug:DMSO) of the same compound?
A: 0.00

Q: And the “light to heavy ratio (L/H ratio) of acetylated peptide ELEK(ac)VCNPIITK (SEQ ID NO: 612)” value (Isoform 1 of Heat shock cognate 71 kDa protein [601], gene HSPA8, inhibitor:DMSO)?
A: 0.00 log 2

Q: What about the “light to heavy ratio (L/H ratio) of acetylated peptide TLVLSDK(ac)HSPQK (SEQ ID NO: 523)” value (Isoform 1 of Histone-lysine N-methyltransferase MLL3 [2809], gene MLL3, inhibitor:DMSO) of the same compound?
A: 0.00 log 2

Q: What about the “light to heavy ratio (L/H ratio) of acetylated peptide VK(ac)NELFK (SEQ ID NO: 565)” value (Isoform 1 of Hydroxyacyl-coenzyme A dehydrogenase mitochondrial [127], gene HADH, inhibitor:DMSO) of the same compound?
A: 0.00 log 2

Q: What about the “light to heavy ratio (L/H ratio) of acetylated peptide LVAENK(ac)FGK (SEQ ID NO: 296)” value (Isoform 1 of Hydroxyacyl-coenzyme A dehydrogenase mitochondrial [301], HADH, drug:DMSO) of the same compound?
A: −0.43 log 2

Q: What about the “light to heavy ratio (L/H ratio) of acetylated peptide K(ac)SADTLWGIQK (SEQ ID NO: 316)” value (Isoform 1 of L-lactate dehydrogenase A chain [318], LDHA, drug:DMSO) of the same compound?
A: 1.00 log 2

Q: And the “light to heavy ratio (L/H ratio) of acetylated peptide FYK(ac)DVLEVGELAK (SEQ ID NO: 596)” value (Isoform 1 of N-alpha-acetyltransferase 50 NatE catalytic subunit [37], gene NAA50, inhibitor:DMSO)?
A: 0.00 log 2

Q: And the “light to heavy ratio (L/H ratio), log 2 scale, acetylated peptide NLQEAEEWYK(ac)SK (SEQ ID NO: 767)” value (Isoform 1 of Peripherin [288], gene PRPH, drug:DMSO)?
A: 0.00

Q: And the “light to heavy ratio (L/H ratio) of acetylated peptide LMK(ac)YLLEQLK (SEQ ID NO: 585)” value (Isoform 1 of Protein MB21D1 [414], gene MB21D1, inhibitor:DMSO)?
A: 0.00 log 2

Q: And the “light to heavy ratio (L/H ratio) of acetylated peptide VLSK(ac)EFHLNESGDPSSK (SEQ ID NO: 294)” value (Isoform 1 of Protein SET [154], SET, drug:DMSO)?
A: −1.00 log 2

Q: What about the “light to heavy ratio (L/H ratio) of acetylated peptide GYAYVEFENPDEAEK(ac)ALK (SEQ ID NO: 349)” value (Isoform 1 of RNA-binding protein with serine-rich domain 1 [218], RNPS1, drug:DMSO) of the same compound?
A: 0.00 log 2

Q: And the “light to heavy ratio (L/H ratio), log 2 scale, acetylated peptide […](ac)TDQAQDVK (SEQ ID NO: 765)” value (Isoform 1 of Signal recognition particle 9 kDa protein [52], gene SRP9, drug:DMSO)?
A: 0.00

Q: And the “light to heavy ratio (L/H ratio) of acetylated peptide LEMSYSK(ac)FK (SEQ ID NO: 304)” value (Isoform 1 of UDP-N-acetylglucosamine--dolichyl-phosphate N-acetylglucosaminephosphotransferase [320], DPAGT1, drug:DMSO)?
A: 0.48 log 2
